Structures are written as SMILES.

The target in the test is Polθ theta (1-899) (hPolQ) (Homo sapiens (Human), UniProt O75417). Put plainly: Biological Assay 1: Polθ ATPase activity, NADH oxidation-coupled enzymatic assay (10 nM enzyme, 30 min). Format: biochemical. Particulars: Polθ (1-899) 10 nM, 100 μM ATP, 300 nM dT50 ssDNA; Examples 1 to 268; read-out: ATPase NADH coupling:Standard Screening:hPolQ IC50. The procedure: The ability of the compounds of Formula (I), (II), (III), (IV), or Table 1 (Examples 1 to Example 268) to inhibit ATPase activity of Polθ theta (1-899) was determined using the assay described below.
Chain of Polθ theta (1-899) (hPolQ) (O75417 1-899): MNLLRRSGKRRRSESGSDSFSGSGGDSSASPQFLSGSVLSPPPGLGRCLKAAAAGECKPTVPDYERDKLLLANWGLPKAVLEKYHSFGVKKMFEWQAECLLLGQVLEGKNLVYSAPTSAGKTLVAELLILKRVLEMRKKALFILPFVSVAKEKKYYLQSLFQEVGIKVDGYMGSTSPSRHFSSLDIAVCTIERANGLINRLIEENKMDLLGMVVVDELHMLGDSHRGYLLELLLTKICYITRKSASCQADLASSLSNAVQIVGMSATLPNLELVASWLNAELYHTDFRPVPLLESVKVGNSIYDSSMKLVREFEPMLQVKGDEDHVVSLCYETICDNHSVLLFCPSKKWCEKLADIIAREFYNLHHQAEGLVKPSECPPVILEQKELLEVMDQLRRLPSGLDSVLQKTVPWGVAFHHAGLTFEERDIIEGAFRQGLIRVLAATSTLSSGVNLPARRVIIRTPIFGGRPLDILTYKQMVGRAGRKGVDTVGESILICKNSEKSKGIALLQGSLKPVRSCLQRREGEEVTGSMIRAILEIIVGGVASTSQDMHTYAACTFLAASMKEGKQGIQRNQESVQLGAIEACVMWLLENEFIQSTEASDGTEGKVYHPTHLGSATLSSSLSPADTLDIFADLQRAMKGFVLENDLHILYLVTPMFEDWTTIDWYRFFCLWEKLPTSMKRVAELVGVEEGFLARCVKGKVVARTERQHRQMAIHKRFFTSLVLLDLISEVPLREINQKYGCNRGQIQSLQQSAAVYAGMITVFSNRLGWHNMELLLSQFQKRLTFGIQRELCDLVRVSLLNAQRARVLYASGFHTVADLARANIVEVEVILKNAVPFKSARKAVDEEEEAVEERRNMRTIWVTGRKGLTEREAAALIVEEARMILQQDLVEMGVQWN
Polθ Theta ATPase activity was determined by measuring the rate of ATP turn over in a NADH oxidation-coupled enzymatic assay. 10-point dilution series of compounds were used in a 384 well format for the inhibition assays. Polθ theta (1-899) (10 nM) in assay buffer (20 mM Tris HCl (pH 7.80), 80 mM KCl, 10 mM MgCl2, 1 mM DTT, 0.01% BSA, 0.01% Tween, 5% glycerol) was transferred to the test wells (20 μL), except the low control wells (20 μL of assay buffer was added to the low control wells). The plate was then incubated at room temperature for 15 min. An equal volume (20 μL) of 100 μM ATP, 300 nM dT50 (single-stranded DNA (ssDNA) containing 50 thymine bases), 300 μM NADH, 6 mM PEP, 10 U/mL lactate dehydrogenase and U/mL pyruvate kinase in assay buffer was added to all the test wells. The plate was then centrifuged at 1000 rpm for 1 min. The reaction was monitored for 30 min by measuring absorbance (λ=340 nm) in a Tecan Spark multimode plate reader every minute. The high control (DMSO with enzyme) with low absorbance intensity represents no inhibition of ATPase reaction while the low control (DMSO with buffer) with high absorbance intensity represents full inhibition of ATPase activity. Slope of the reaction progress curves were used to calculate the rate of ATP hydrolysis. The rates were used to determine the percent inhibition using a four-parameter inhibition model to generate IC50, Hill slope and max inhibition.
As to `COc1ccc(COc2nnc(NC(=O)c3cnc(C)cc3-c3c(F)cccc3OC)s2)nc1OC` [Example 43, N-(5-((5,6-dimethoxypyridin-2-yl)methoxy)-1,3,4-thiadiazol-2-yl)-4-(2-fluoro-6-methoxyphenyl)-6-methylnicotinamide], the IC50 (in general, the point on the concentration scale where inhibition reaches its midpoint) is at most 200 nM.

For `CN=[S@@](C)(=O)c1ccc(COc2nnc(NC(=O)c3cnc(C)cc3-c3c(F)cccc3OC)s2)cc1` [Example 155, N-(5-((4-((S)—N,S-dimethylsulfonimidoyl)benzyl)oxy)-1,3,4-thiadiazol-2-yl)-4-(2-fluoro-6-methoxyphenyl)-6-methylnicotinamide], the IC50 was at most 200 nM.

Consider `COc1cccnc1-c1cc(C)ncc1C(=O)Nc1nnc(OCc2ccc(Cl)cn2)s1` [Example 120, N-(5-((5-chloropyridin-2-yl)methoxy)-1,3,4-thiadiazol-2-yl)-3-methoxy-6′-methyl-(2,4′-bipyridine)-3′-carboxamide], for which the half-inhibitory concentration (IC50) fell in the range of 200 to 500 nM.

In the case of `COc1cccc(F)c1-c1cn2ncc(C)c2cc1C(=O)Nc1nnc(OC[C@H]2CC[C@H](O)CC2)s1` [Example 194, 6-(2-fluoro-6-methoxyphenyl)-N-(5-(((1r,4r)-4-hydroxycyclohexyl)methoxy)-1,3,4-thiadiazol-2-yl)-3-methylpyrazolo(1,5-a)pyridine-5-carboxamide], the half-inhibitory concentration (IC50) was in the range of 1000 to 10000 nM.

With `COc1cnc(Cl)cc1-c1cc(C)ncc1C(=O)Nc1nnc(OC[C@H]2COCC(C)(C)O2)s1` (single isomer, unassigned) [Example 221], the IC50 was at most 200 nM.

As for `COc1cccc(F)c1-c1cc(C)ncc1C(=O)Nc1nnc(OCc2cnc([C@H](C)O)cn2)s1` [Example 110, 4-(2-fluoro-6-methoxyphenyl)-N-(5-((5-((S)-1-hydroxyethyl)pyrazin-2-yl)methoxy)-1,3,4-thiadiazol-2-yl)-6-methylnicotinamide], the IC50 is at most 200 nM.

For the compound `COc1cnc(Cl)cc1-c1cc(C)ncc1C(=O)Nc1nnc(OCC2(C)COC2)s1` [Example 162, 2′-chloro-5′-methoxy-6-methyl-N-(5-((3-methyloxetan-3-yl)methoxy)-1,3,4-thiadiazol-2-yl)-(4,4′-bipyridine)-3-carboxamide], the IC50 is at most 200 nM.

Consider `COc1cccc(F)c1-c1cc(C)ncc1C(=O)Nc1nnc(OCc2ccc(CO)cn2)s1` [Example 14, 4-(2-fluoro-6-methoxyphenyl)-N-(5-((5-(hydroxymethyl)pyridin-2-yl)methoxy)-1,3,4-thiadiazol-2-yl)-6-methylpyridine-3-carboxamide], for which the half-maximal inhibitory concentration (IC50) was at most 200 nM.

On to `Cc1cc(-c2cc(Cl)ncc2OC(F)F)c(C(=O)Nc2nnc(OC[C@@H]3CCOC3)s2)cn1` (single isomer, unassigned) [Example 258], for which the concentration for half-maximal inhibition (IC50) was at most 200 nM.

`COc1cnc(Cl)cc1-c1cc(C)ncc1C(=O)Nc1nnc(OC[C@@H]2CC[C@@H](O)C2)s1` (single isomer, unassigned) [Example 209]: the IC50 is at most 200 nM.

As to `COc1cnc(Cl)cc1-c1cc(C)ncc1C(=O)Nc1nnc(OCc2ccc(C(C)(C)OC)cn2)s1` [Example 125, 2′-chloro-5′-methoxy-N-(5-((5-(2-methoxypropan-2-yl)pyridin-2-yl)methoxy)-1,3,4-thiadiazol-2-yl)-6-methyl-(4,4′-bipyridine)-3-carboxamide], the IC50 is at most 200 nM.

As to `COc1cnc(C)c(F)c1-c1cc(C)ncc1C(=O)Nc1nnc(OC[C@H]2CC[C@H](O)CC2)s1` [Example 212, 3′-fluoro-N-(5-(((1r,4r)-4-hydroxycyclohexyl)methoxy)-1,3,4-thiadiazol-2-yl)-5′-methoxy-2′,6-dimethyl-(4,4′-bipyridine)-3-carboxamide], the half-maximal inhibitory concentration (IC50) is at most 200 nM.

Consider `COc1cnc(Br)cc1-c1cc(C)ncc1C(=O)Nc1nnc(OC[C@@H]2CCOC2)s1` (single isomer, unassigned) [Example 245], for which the IC50 was at most 200 nM.

For the origin of these results see patent US20250325552A1, “SUBSTITUTED THIADIAZOLYL DERIVATIVES AS DNA POLYMERASE THETA INHIBITORS” (IDEAYA Biosciences, Inc., priority 2020, published 2025).
